Data from patent US20210352863A1, “METHOD FOR CONTROLLING WEED BEETS AND OTHER WEEDS” (KWS SAAT SE & Co. KGaA, priority 2018, published 2021).

How the values were obtained:
[1] = test system: sugar beet elite line T807 (mutagenized, M2 plants); assay: glyphosate treatment of surviving M2 plants of mutagenized sugar beet (screening and selection for resistance); assay type: in vivo, Beta vulgaris (sugar beet); conditions: 600 g/ha glyphosate acid equivalent
From the text: 6 kg seeds of sugar beet elite line T807 (3BT1760, M0 population) were mutagenized with 0.5% EMS and 0.3% and 0.5%, respectively ENU, and subsequently drilled for steck production. Stecks were replanted for seed production occupying an area of 5.8 ha. M1 population sizes were 75,000 seed producing plants for EMS and 19,000 plants for ENU mutagenized seeds. The following M2 seed amounts (values given for purified seed) has been obtained: 240 kg for 0.5% EMS (idents A and B), 548 kg for 0.3% ENU (idents C and D), and 256 kg 0.5% ENU (idents E and F).
176 kg of idents A and B and 75 kg of idents C, D, E and F were sown on an approximately 15 ha spanning field site. Approximately 1 month after sowing, the entire field was sprayed with 0.88 I/ha ROUNDUP® MAX (680 g/kg glyphosate acid equivalent). Approximately 6 weeks later, plants surviving the glyphosate treatment were collected in the field, transplanted to pots and further cultivated in the greenhouses. Surviving plants were treated with 600 g/ha glyphosate acid equivalent about 2 months later.
In order to identify the causative mutation behind the observed herbicide resistance sequencing analyses have been performed. Inter alia, the exon 2 of the epsp synthase gene in sugar beet was PCR amplified (primers BvEPSPS_Ex_2_for, 5′-[…]-3′ (SEQ ID NO: 13), and BvEPSPS_Ex_2_rev, 5′-[…]-3′ (SEQ ID NO: 14)) and Sanger sequenced (primers BvEPSPS_Ex2_Seqf, 5′-[…]-3′ (SEQ ID NO: 15), and BvEPSPS_Ex2_Seqr, 5′-[…]-3′ (SEQ ID NO: 16)) in all 172 surviving plants. The sugar beet plant with identifier 6MS1008-109 carried a C to T mutation that causes the P179S amino acid change in BvEPSPS. This artificial SNP has been independently confirmed by KASP marker assay using an in silico developed KASP-marker s1txepss02 (SEQ ID NOs: 17-19): […]

[2] = acid form, at 25° C.; cited from earlier work

In the case of `O=C(O)CNCP(=O)(O)O` [glyphosate, N-phosphonomethylglycine], the “resistance conferred by heterozygous P179S mutation in BvEPSPS” value ([1]; approx. 50% of standard field treatment level, strong indication from screening and selection) is reported as “complete resistance”, the “plants that survived the treatment” value ([1]; potted greenhouse plants that had survived the field spray with ROUNDUP MAX) is reported as 172 plants and the “herbicide damage on surviving plants” value ([1]; the 172 surviving plants in the greenhouse) is reported as “without any signs of herbicide damage”. For the same molecule, the solubility in water [2] was 1.16 % by weight.
